In ChEMBL document CHEMBL2069260, “Synthesis and evaluation of novel 2-pyridone derivatives as inhibitors of phosphodiesterase3 (PDE3): a target for heart failure and platelet aggregation” (Bioorg Med Chem Lett, 2012):

Key:
Type in all cases: protein assay
Phosphodiesterase 3 [1] = biological target: T1, Phosphodiesterase 3 (Homo sapiens, UniProt Q14432+Q13370); experiment: Inhibition of PDE3 at 500 uM by Biomol Green quantizyme assay system
Phosphodiesterase 3 [2] = biological target: T1, Phosphodiesterase 3; experiment: Inhibition of PDE3 by Biomol Green quantizyme assay system
Phosphodiesterase 3 [3] = biological target: T1, Phosphodiesterase 3; experiment: Inhibition of PDE3 at 1 nM by Biomol Green quantizyme assay system
Phosphodiesterase 3 [4] = biological target: T1, Phosphodiesterase 3; experiment: Inhibition of PDE3 at 10 uM by Biomol Green quantizyme assay system
Phosphodiesterase 3 [5] = biological target: T1, Phosphodiesterase 3; experiment: Inhibition of PDE3 at 100 nmol by Biomol Green quantizyme assay system

| SMILES | inhibition (Phosphodiesterase 3 [1]) [%] | IC50 (Phosphodiesterase 3 [2]) [µM] | inhibition (Phosphodiesterase 3 [3]) [%] | inhibition (Phosphodiesterase 3 [4]) [%] | inhibition (Phosphodiesterase 3 [5]) [%] |
| --- | --- | --- | --- | --- | --- |
| N#Cc1cc(Cc2ccc(Br)cc2)c(=O)[nH]c1-c1ccccc1 | 4.3 |  |  |  |  |
| CCOC(=O)c1cc(Cc2ccc(C)cc2)c(=O)[nH]c1C | 80.1 | 172.5 | 0 | 35.4 |  |
| CCOC(=O)c1cc(Cc2ccc(Br)cc2)c(=O)[nH]c1C | 79.1 | 38.5 | 44.6 |  | 47.7 |
| CCOC(=O)c1cc(Cc2ccc(Br)cc2)c(=O)[nH]c1-c1ccccc1 | 74.1 | 8.47 |  | 55.4 | 21.5 |
| Cc1[nH]c(=O)c(Cc2ccc(Cl)cc2Cl)cc1C#N | 79.5 | 280.7 | 0 | 23.1 |  |
| Cc1[nH]c(=O)c(Cc2ccc(Br)cc2)cc1C#N | 17.3 |  |  |  |  |
| Cc1[nH]c(=O)c(Cc2ccc(Cl)cc2)cc1C#N | 41.2 |  |  |  |  |
| CCOC(=O)c1cc(Cc2ccc(C)cc2)c(=O)[nH]c1-c1ccccc1 | 42.2 |  |  |  |  |
| CCOC(=O)c1cc(Cc2ccc(Cl)cc2Cl)c(=O)[nH]c1C | 78.3 | 172.13 |  | 35.4 | 30.8 |
| Cc1[nH]c(=O)c(Cc2ccccc2)cc1C#N | 84.6 | 128.3 | 35.4 |  | 38.5 |
| CCOC(=O)c1cc(Cc2cccc(Cl)c2)c(=O)[nH]c1-c1ccccc1 | 80.9 | 312.4 | 0 | 20 |  |
| Cc1ccc(Cc2cc(C#N)c(C)[nH]c2=O)cc1 | 85.9 | 1.68 | 34 | 72.4 |  |
| CCOC(=O)c1cc(Cc2ccccc2)c(=O)[nH]c1-c1ccccc1 | 83 | 7.3 | 33.9 | 55.4 |  |
| COC(=O)c1cc(Cc2ccccc2)c(=O)[nH]c1C | 76.7 | 163.5 | 21.5 |  | 36.9 |
| CCOC(=O)c1cc(Cc2cccc(Cl)c2)c(=O)[nH]c1C | 83.2 | 7.49 |  | 56.9 | 30.8 |
| CCOC(=O)c1cc(Cc2ccc(Cl)cc2)c(=O)[nH]c1-c1ccccc1 | 1.1 |  |  |  |  |
| Cc1[nH]c(=O)c(C#N)cc1-c1ccncc1 | 90.6 |  |  | 91.7 |  |
| CCCc1cc(C(=O)OCC)c(C)[nH]c1=O | 78.2 | 125.1 | 6.15 |  | 40 |
| CCOC(=O)c1cc(Cc2ccc(Cl)cc2)c(=O)[nH]c1C | 43 |  |  |  |  |
| CCOC(=O)c1cc(Cc2ccccc2)c(=O)[nH]c1C | 42.9 |  |  |  |  |
| N#Cc1cc(Cc2ccccc2)c(=O)[nH]c1-c1ccccc1 | 22.5 |  |  |  |  |
| Cc1[nH]c(=O)c(Cc2ccccc2Cl)cc1C#N | 80.4 | 423.2 | 0 |  | 7.69 |
| CCOC(=O)c1cc(Cc2ccccc2Cl)c(=O)[nH]c1C | 53.9 |  |  |  |  |
| COC(=O)c1cc(Cc2ccccc2Cl)c(=O)[nH]c1C | 85.8 | 2.66 |  | 87.7 | 36.9 |
